In the oligonucleotide strings, read from the 5' end, every base follows the letter of its sugar. An asterisk marks phosphorothioate; unmarked linkages are phosphodiester. Other units and linkages are bracketed, terminal groups are in braces. A string of capitals states the bases alone. d = 2'-deoxy (DNA)
Tested on: human preadipocyte
Assay: Effect of antisense compound on adipocyte proliferation and differentiation (Adipo Red)
Type: cell-based
Details: 300 nM; human preadipocyte
Protocol: First, human preadipocyte (Human Preadipocytes-sq POIETICS #PT-5020, Sanko Junyaku Co., Ltd.) was suspended in growth medium (#PT-8200, Sanko Junyaku Co., Ltd.), and after adding the suspension to a 96 well culture plate at 1×10^4 cells/well/100 μL, the cells were cultured overnight at 37° C. in the presence of 5% CO2.
The preadipocyte was cultured overnight, and after washing the preadipocyte twice with serum-free DMEM, Opti-MEM was added at 80 μL/well.
Gene transfection reagent Lipofectin was diluted with Opti-MEM to 20 μg/mL, and the dilution was allowed to stand at room temperature for 30 minutes. Next, the antisense oligodeoxynucleotide synthesized as described above was heated at 90° C. for 3 minutes, and after quenching on ice, diluted with Opti-MEM to a concentration 10 times higher than the final concentration. Equal amounts of the Lipofectin in Opti-MEM and the antisense oligodeoxynucleotide in Opti-MEM were mixed, and the mixture was incubated at room temperature for 15 minutes and added to 96 well plate at 20 μL/well. After incubating at 37° C. for 4 hours in the presence of 5% CO2, it was used for examination as described below.
The differentiation medium was prepared by using growth medium (#PT-8200, Sanko Junyaku Co., Ltd.) and supplement kit (PGM Single Quots, #PT-9500, Sanko Junyaku Co., Ltd.) according to the instruction of the kit. Next, the culture supernatant containing the Lipofectin was removed from the 96 well plate prepared in the above (2), and the plate was washed twice with serum-free DMEM, and the differentiation medium prepared as described above was added at 100 μL/well. The plate was then incubated at 37° C. for 5 days to 15 days in the presence of 5% CO2.
Accumulation of the neutral fat in the adipocyte was determined by fluorometry using Adipo Red stain.
After taking the 96 well plate out of the CO2 incubator, the plate was allowed to stand until it reached room temperature. The plate was centrifuged at 300 g (1200 rpm) for 10 minutes at room temperature to remove the medium. Next, after gently washing with PBS (SIGMA) at 200 μL/well, PBS was added to the well at 200 μL/well. Next, Adipo Red Assay Reagent (Adipo Red, Cat. #PT-7009, Lot.3F0497, A Cambrex Company) was added at 5 μL/well, and the plate was allowed to stand at room temperature for at least 10 minutes to thereby stain the neutral fat accumulated in the adipocyte. The fat accumulation was determined by measuring fluorescence intensity in a fluorometer at an excitation wavelength of 485 nm and an emission wavelength of 535 nm.
The suppression rate of the adipocyte differentiation was calculated by converting the fluorescence intensity of the well transfected with the antisense compound in relation to the fluorescence intensity of the well without transfection with the antisense compound which was assumed as 100%. The result was rated “+” when the suppression rate was at least 25%, “++” when the suppression rate was at least 50%, and “+++” when the suppression rate was at least 75%.

Question: “2 (dC*dT*dG*dG*dT*dT*dA*dA*dT*dG*dG*dT*dT*dC*dA*dC*dA*dT*dC*dT) [compound 2]” was tested. Which “Supression of adipose differentiation 300 nM” value did it give?
Answer: ++ (“++” when the suppression rate was at least 50%)
